According to paper PMC4804635 (European journal of pharmacology, 2016):

Legend:
Human MNC ACE2 = Human MNC ACE2 (Homo sapiens, UniProt Q9BYF1); test: ACE2 activity assay in human mononuclear cell lysates; settings: for Imax at ACE2 in human MNCs: cell lysate 10 μg protein, 4 h
ACE in human CD34+ cells = ACE in human CD34+ cells (Homo sapiens, UniProt P12821); test: ACE activity assay in human CD34+ cell lysates
[1] = target: ACE2 in human CD34+ cells (Homo sapiens, UniProt Q9BYF1); test: ACE2 activity assay in human CD34+ cell lysates; settings: for Imax at ACE2 in human CD34+ cells: cell lysate, 4 h, n=6
Sequence of ACE2 in human CD34+ cells (Q9BYF1 18-805): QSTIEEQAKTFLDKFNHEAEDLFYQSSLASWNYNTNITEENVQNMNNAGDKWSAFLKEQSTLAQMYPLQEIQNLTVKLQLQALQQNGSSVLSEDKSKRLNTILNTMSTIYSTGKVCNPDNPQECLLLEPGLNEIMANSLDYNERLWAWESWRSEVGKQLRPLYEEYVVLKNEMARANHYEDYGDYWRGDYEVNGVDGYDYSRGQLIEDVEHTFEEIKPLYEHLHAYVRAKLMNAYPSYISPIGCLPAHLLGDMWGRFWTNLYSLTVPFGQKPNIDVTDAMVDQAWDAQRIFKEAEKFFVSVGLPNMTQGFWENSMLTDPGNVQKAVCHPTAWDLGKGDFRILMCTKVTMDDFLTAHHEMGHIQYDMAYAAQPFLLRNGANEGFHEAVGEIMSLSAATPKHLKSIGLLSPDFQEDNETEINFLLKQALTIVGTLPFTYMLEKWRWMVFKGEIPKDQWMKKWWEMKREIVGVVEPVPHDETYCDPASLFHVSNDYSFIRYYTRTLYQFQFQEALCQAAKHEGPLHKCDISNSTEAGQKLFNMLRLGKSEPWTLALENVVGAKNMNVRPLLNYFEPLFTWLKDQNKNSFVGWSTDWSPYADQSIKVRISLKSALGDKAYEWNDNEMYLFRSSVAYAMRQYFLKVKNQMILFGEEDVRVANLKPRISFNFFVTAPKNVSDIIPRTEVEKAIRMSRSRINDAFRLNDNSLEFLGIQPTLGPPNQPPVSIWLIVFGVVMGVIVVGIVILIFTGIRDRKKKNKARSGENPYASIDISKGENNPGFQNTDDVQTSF

Human MNC ACE = Human MNC ACE (Homo sapiens, UniProt P12821); test: ACE activity assay in human mononuclear cell lysates; settings: cell lysate 10 μg protein, 4 h
Sequence of Human MNC ACE (P12821 30-1306): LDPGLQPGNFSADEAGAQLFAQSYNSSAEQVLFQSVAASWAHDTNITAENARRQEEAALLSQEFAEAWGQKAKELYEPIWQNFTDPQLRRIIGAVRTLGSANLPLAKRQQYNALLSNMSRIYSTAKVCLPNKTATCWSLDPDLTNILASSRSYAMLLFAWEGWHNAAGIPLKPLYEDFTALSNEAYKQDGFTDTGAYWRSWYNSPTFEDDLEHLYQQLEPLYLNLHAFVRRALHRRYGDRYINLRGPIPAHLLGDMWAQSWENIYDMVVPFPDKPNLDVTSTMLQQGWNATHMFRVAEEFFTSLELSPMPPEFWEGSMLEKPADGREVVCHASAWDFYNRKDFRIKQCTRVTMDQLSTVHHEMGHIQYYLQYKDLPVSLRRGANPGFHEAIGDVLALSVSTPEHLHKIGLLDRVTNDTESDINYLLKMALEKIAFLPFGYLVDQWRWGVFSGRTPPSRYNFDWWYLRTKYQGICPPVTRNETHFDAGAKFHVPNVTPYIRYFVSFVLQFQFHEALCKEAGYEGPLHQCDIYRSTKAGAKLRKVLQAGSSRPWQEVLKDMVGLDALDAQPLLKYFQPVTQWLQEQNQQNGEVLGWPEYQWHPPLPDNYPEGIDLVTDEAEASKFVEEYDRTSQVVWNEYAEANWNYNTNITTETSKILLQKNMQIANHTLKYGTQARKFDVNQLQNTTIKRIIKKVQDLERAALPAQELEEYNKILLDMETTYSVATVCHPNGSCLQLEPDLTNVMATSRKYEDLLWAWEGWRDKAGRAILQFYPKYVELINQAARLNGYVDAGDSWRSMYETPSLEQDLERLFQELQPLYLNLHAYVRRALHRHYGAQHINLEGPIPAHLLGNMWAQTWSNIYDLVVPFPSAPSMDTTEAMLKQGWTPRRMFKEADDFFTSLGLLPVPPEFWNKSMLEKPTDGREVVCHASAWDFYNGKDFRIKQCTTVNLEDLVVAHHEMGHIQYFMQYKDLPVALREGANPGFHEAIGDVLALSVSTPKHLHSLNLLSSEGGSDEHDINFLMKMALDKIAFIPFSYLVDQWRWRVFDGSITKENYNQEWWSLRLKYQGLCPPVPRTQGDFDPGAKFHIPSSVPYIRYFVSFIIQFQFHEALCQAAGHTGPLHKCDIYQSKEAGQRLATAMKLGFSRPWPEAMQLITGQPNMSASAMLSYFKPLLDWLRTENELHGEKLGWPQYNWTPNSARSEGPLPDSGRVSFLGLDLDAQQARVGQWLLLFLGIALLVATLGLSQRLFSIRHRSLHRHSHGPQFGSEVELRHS

ACE in murine heart = target: T1, ACE in murine heart (Mus musculus, UniProt P09470); test: ACE activity assay in murine heart homogenate; format: biochemical
T1 sequence (P09470 35-1312): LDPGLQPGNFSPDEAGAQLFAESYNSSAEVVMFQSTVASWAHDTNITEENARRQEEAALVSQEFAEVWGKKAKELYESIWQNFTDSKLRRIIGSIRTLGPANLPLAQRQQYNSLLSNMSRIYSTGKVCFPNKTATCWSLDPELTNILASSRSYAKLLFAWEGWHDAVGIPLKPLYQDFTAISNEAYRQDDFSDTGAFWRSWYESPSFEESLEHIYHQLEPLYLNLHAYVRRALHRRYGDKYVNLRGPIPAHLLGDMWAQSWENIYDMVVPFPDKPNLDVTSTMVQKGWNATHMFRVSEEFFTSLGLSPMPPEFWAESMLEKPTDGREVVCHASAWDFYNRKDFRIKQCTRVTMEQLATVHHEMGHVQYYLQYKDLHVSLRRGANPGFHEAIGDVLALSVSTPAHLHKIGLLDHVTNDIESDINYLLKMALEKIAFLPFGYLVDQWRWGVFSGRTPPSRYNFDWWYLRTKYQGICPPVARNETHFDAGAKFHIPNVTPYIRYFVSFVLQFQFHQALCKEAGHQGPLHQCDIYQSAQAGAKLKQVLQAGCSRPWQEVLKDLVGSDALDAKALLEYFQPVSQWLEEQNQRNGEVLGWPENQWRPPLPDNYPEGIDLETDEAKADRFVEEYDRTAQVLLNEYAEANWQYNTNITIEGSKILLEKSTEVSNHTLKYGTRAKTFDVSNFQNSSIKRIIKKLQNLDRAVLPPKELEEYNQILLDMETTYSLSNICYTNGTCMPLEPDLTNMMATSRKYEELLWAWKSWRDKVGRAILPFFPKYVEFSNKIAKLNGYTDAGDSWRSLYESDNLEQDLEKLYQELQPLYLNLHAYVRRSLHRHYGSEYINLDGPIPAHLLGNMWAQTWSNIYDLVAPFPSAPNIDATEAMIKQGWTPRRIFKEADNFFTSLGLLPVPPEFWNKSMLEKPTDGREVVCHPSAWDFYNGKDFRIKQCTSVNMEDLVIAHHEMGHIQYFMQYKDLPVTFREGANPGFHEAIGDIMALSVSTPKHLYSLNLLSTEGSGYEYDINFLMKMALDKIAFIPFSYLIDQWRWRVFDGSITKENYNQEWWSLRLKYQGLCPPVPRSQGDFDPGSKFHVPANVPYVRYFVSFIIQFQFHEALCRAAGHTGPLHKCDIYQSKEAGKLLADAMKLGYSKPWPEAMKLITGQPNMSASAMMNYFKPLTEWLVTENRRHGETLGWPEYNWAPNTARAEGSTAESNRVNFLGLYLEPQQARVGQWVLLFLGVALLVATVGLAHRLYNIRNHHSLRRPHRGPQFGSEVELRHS

[2] = target: Recombinant Human ACE2 (rhACE2) (Homo sapiens, UniProt Q9BYF1); test: ACE2 activity assay with recombinant human ACE2; format: biochemical
Sequence of Recombinant Human ACE2 (rhACE2) (Q9BYF1 18-805): as the sequence (Q9BYF1 18-805) above

Murine MNC ACE = target: T2, Murine MNC ACE (Mus musculus, UniProt P09470); test: ACE activity assay in murine mononuclear cell lysates
T2 sequence (P09470 35-1312): T1 sequence (P09470 35-1312)

Murine MNC ACE2 = Murine MNC ACE2 (Mus musculus, UniProt Q8R0I0); test: ACE2 activity assay in murine mononuclear cell lysates
Sequence of Murine MNC ACE2 (Q8R0I0 18-805): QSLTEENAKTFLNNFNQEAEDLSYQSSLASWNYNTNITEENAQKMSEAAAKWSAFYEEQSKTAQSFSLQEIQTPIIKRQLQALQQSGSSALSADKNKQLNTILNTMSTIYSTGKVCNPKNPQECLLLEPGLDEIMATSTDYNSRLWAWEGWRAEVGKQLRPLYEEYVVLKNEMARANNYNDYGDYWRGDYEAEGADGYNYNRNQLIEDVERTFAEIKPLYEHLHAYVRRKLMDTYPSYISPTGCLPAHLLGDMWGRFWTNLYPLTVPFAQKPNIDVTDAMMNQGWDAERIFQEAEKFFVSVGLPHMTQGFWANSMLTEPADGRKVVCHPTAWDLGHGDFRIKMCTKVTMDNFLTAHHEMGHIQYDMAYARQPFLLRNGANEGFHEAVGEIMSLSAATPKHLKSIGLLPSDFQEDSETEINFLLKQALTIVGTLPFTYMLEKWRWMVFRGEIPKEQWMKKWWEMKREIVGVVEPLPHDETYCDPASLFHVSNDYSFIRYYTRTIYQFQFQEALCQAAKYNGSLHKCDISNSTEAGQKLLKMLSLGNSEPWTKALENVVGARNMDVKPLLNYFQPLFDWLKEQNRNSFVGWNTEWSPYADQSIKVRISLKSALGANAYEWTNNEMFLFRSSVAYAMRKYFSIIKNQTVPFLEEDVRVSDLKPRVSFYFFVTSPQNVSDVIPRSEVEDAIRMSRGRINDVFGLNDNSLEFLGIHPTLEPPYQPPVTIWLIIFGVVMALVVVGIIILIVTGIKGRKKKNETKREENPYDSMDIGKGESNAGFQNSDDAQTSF

[3] = target: Recombinant Human ACE (rhACE) (Homo sapiens, UniProt P12821); test: ACE activity assay with recombinant human ACE; format: biochemical
Sequence of Recombinant Human ACE (rhACE) (P12821 30-1306): as the sequence (P12821 30-1306) above

ACE2 in murine heart = ACE2 in murine heart (Mus musculus, UniProt Q8R0I0); test: ACE2 activity assay in murine heart homogenate; format: biochemical
[4] = recombinant enzyme, 50 μM substrate, pH 6.5, 1 h

Sequence of Human MNC ACE2 (Q9BYF1 18-805): as the sequence (Q9BYF1 18-805) above
Sequence of ACE in human CD34+ cells (P12821 30-1306): as the sequence (P12821 30-1306) above

CC(C)C[C@H](N[C@@H](Cc1cncn1Cc1cc(Cl)cc(Cl)c1)C(=O)O)C(=O)O [isomer B, (2S)-2-[[(2S)-3-[3-[(3,5-dichlorophenyl)methyl]imidazol-4-yl]-1-hydroxy-1-oxopropan-2-yl]amino]-4-methylpentanoic acid]
Ki (Human MNC ACE2): 200 ± 10 nM
IC50 (Human MNC ACE2; IC50, Human ACE2 (human MNCs)): 500 ± 30 nM
Imax at ACE2 in human MNCs (Human MNC ACE2): 63±2%
Imax at ACE2 in human MNCs (Human MNC ACE2; listed as MLN-4760-B): 63%
IC50 (ACE in human CD34+ cells): 12600 nM
Imax at ACE in human CD34+ cells (ACE in human CD34+ cells; cell lysate, 4 h, n=6): 19±2%
IC50 [1]: 316 nM
Imax at ACE2 in human CD34+ cells [1]: 38±4%
Imax at ACE2 in human CD34+ cells ([1]; listed as MLN-4760-B): 38%
Imax at ACE in human MNCs (Human MNC ACE): 34±1%
IC50 (ACE in murine heart): 63100 nM
Ki [2]: 40 ± 5 nM
IC50 ([2]; IC50, Recombinant Human ACE2): 10 ± 6 nM
Maximum inhibition (Imax) of rhACE2 [2, 4]: 80±3%
IC50 (Murine MNC ACE): 20000 nM
Ki (Murine MNC ACE2): 2100 ± 200 nM
IC50 (Murine MNC ACE2; pIC50 at ACE2 in murine MNCs, cell lysate, 4 h): 79.4 nM
inhibition at 10 µM ([3]; read-out: inhibition of rhACE activity): 43%
Imax at rhACE [3, 4]: 46±1%
IC50 (ACE2 in murine heart): 251 nM
